Patent US20260335279A1, “METHODS OF TREATING ISCHEMIA-REPERFUSION INJURIES” (University of Cincinnati, priority 2022, published 2026)

Legend:
[1] = test system: BCL-XL; experiment: BCL-XL anti-apoptotic protein in myocardium after I/R (Western blot); format: in vivo, mouse (C57BL/6); settings: ML264-treated group; 30 min ischemia, 2 h reperfusion
Description: (§1) The myocardial ischemia/reperfusion surgical protocol was applied as follows. Mice were anesthetized with 2% isoflurane inhalation until anesthesia was achieved. The animals' body temperature was maintained at 37 °C throughout the surgical procedure using a heating pad. A tracheal tube was placed via tracheal intubation and the respiration rate was set at 150 strokes/min with a tidal volume of 200 μL, using Minivent ventilator for mice (Model 845, Harvard Apparatus). A 1.2 cm incision was made over the left chest. After retraction of the pectoral major and minor muscles, the fourth intercostal space was exposed. […] The left anterior descending coronary artery (LAD) was then located, sutured, and ligated at a site 3-4 mm distal to the origin of the artery under the left atrium using a 6-0 silk suture. […] The mouse was then monitored during the recovery period, which was generally completed within 3 to 5 minutes. […]
(§2) Isolated myocardial tissue/isolated primary murine cardiomyocytes were homogenized in radioimmunoprecipitation assay buffer (RIPA buffer) containing protease and phosphatase inhibitors (Thermo Fischer Scientific, Cat. No.: A32959). […] Relative densitometry was determined, and the β-actin protein was used as a loading control.
In order to unravel the mechanisms of KLF5-mediated cardiotoxicity, oxidative stress levels were evaluated at early reperfusion. […]

[2] = test system: KLF5; experiment: KLF5 protein expression (Western blot) in cardiac tissue, I/R mice; format: in vivo, mouse (C57BL/6); settings: 30 minutes of ischemia; ML264 25 mg/kg/12 h intraperitoneal
Description: as §1, with “suture. The heart was allowed to stabilize for 15 min and right after, ischemia was induced by tightening the suture against a small piece of polyethylene tube.” for “suture.”
as §2, with “control. […]” for “control.”

[3] = test system: Col3a1; experiment: Col3a1 mRNA in chronic model of I/R injury (real-time PCR); format: in vivo, mouse (C57BL/6); settings: 4 weeks post-I/R; vs IR group treated with vehicle
Description: (§3) The myocardial ischemia/reperfusion surgical protocol was applied as follows. Mice were anesthetized with 2% isoflurane inhalation until anesthesia was achieved. The animals' body temperature was maintained at 37 °C throughout the surgical procedure using a heating pad. A tracheal tube was placed via tracheal intubation and the respiration rate was set at 150 strokes/min with a tidal volume of 200 μL, using Minivent ventilator for mice (Model 845, Harvard Apparatus). A 1.2 cm incision was made over the left chest. After retraction of the pectoral major and minor muscles, the fourth intercostal space was exposed. […] The mouse was then monitored during the recovery period, which was generally completed within 3 to 5 minutes. […]
(§4) Total RNA was purified from heart tissue using the TRIzol reagent according to the instructions of the manufacturer (ThermoFischer Scientific, Cat. No.: 15596018). cDNA synthesis was performed using the Applied Biosystems High Capacity cDNA Reverse Transcription Kit (ThermoFischer Scientific, Cat. No.: 4368814) from 500 ng RNA, which had been treated with DNAase I (ThermoFischer Scientific, Cat. No.: 18068015). Quantitative real-time PCR was performed with the SYBR Select Master Mix (ThermoFischer Scientific, Cat. No.: 4472903) using the manufacturer's recommendations. […]

[4] = test system: TNFα; experiment: TNFα mRNA in ischemic myocardium; format: in vivo, mouse (C57BL/6); settings: evaluated at 2 h and 24 h of reperfusion, vs vehicle
Description: as §3, §4

[5] = test system: Glut1; experiment: GLUT1 protein levels after I/R; format: in vivo, mouse; settings: ML-264 treatment; did not reach statistical significance
Description: as §3, §2
Finally, to test the potential involvement of GLUT1 and GLUT4 in myocardial ischemia-reperfusion injury, two compounds, namely KL-11743, a non-specific GLUT inhibitor, as well as STF-31, which is a GLUT1-specific inhibitor, were evaluated.

[6] = test system: Col1a1; experiment: Col1a1 mRNA in chronic model of I/R injury (real-time PCR); format: in vivo, mouse (C57BL/6); settings: 4 weeks post-I/R; vs IR group treated with vehicle
Description: as §3, §4

[7] = test system: NOX4; experiment: NOX4 mRNA in myocardium after I/R (real-time PCR); format: in vivo, mouse (C57BL/6); settings: ML264 treatment; 30 min ischemia, 2 h reperfusion
Description: as §3, §4

[8] = test system: reactive oxygen species in myocardium; experiment: DHE staining of myocardium (superoxide detection, oxidative stress) after I/R; format: in vivo, mouse (C57BL/6); settings: 30 min ischemia, 2 h reperfusion; ML264 5 min prior to reopening of coronary artery; vs I/R vehicle
Description: The myocardial ischemia/reperfusion surgical protocol was applied as follows. Mice were anesthetized with 2% isoflurane inhalation until anesthesia was achieved. The animals' body temperature was maintained at 37 °C throughout the surgical procedure using a heating pad. A tracheal tube was placed via tracheal intubation and the respiration rate was set at 150 strokes/min with a tidal volume of 200 μL, using Minivent ventilator for mice (Model 845, Harvard Apparatus). A 1.2 cm incision was made over the left chest. After retraction of the pectoral major and minor muscles, the fourth intercostal space was exposed. […] The left anterior descending coronary artery (LAD) was then located, sutured, and ligated at a site 3-4 mm distal to the origin of the artery under the left atrium using a 6-0 silk suture. The heart was allowed to stabilize for 15 min and right after, ischemia was induced by tightening the suture against a small piece of polyethylene tube. At the end of the 30-minute ischemia period, the ligature was released for the induction of reperfusion, and then the manual evacuation of air and closure of muscle and skin were performed. The mouse was then monitored during the recovery period, which was generally completed within 3 to 5 minutes. […]
Live myocardium was isolated from mice at the time of euthanasia and stained with 20 μM dihydroethidium (DHE) for 30 min at room temperature. […] Individual nuclei were measured within each visual field using ImageJ software, and visual fields were averaged to measure mean fluorescence intensity for each mouse.
In order to unravel the mechanisms of KLF5-mediated cardiotoxicity, oxidative stress levels were evaluated at early reperfusion. […] Given the fact that inflammation and diapedesis of immune cells are important hallmarks of the post-ischemia-reperfusion response, the mRNA levels of IL-1α, IL-1β, IL-6, IL-10, and TNFα in the ischemic myocardium upon ML264 treatment were evaluated at 2 hours of reperfusion (FIGS. 51-5M) and 24 hours of reperfusion (FIGS. 5N-5Q). […]

## CN(C(=O)CNC(=O)/C=C/c1cccc(Cl)c1)C1CCS(=O)(=O)CC1 [ML264]
[1]
  BCL-XL anti-apoptotic proteins: upregulation
[2]
  KLF5 protein expression in cardiac tissue: suppression was confirmed
[3]
  mRNA levels of Col3a1: decreased
[4]
  TNFα mRNA levels: Significant suppression
[5]
  GLUT1 protein levels: trend towards suppression
[6]
  mRNA levels of Col1a1: decreased
[7]
  NOX4 mRNA levels: suppressed
[8]
  reactive oxygen species formation (DHE staining): significant reduction
